In series [1] the test system is MT-2 human T-cells. The experiment in a line: Cytotoxicity, inhibition of MT-2 cell growth. The note with it: read-out: cytotoxicity (CC50); Table 4; human MT-2 cells.
The nature of series [2]: Cytotoxicity, inhibition of MT-2 cell growth. The note with it: human.
A short description of series [3]: Aqueous solubility, literature reports. Format: physicochemical. The note with it: translated from 20 ng/mL at pH 7.0.
For series [4] the following is noted: literature values; cited from earlier work.
Series [5] in a line: Aqueous solubility, shake-flask method with UV detection. The note with it: shake-flask, 25° C. The protocol:
The compounds were dissolved in Britton-Robinson buffer and stirred in vials for 48 hours at 25° C. The pH of the buffer solutions was measured by a Corning General Purpose pH Combination probe (4136L21).
For measurement of aqueous solubility, the pH of the buffer solutions was measured by Corning Combination pH Electrodes (4136L21) pH meter with Ag/AgCl glass electrode. […] An Ika® RCT basic magnetic stirrer was used to mix the two phases.
The equilibrium solubility of the non-ionized form of the samples was determined by the shake flask method. For each reported solubility result, two or three independent shake-flask experiments were carried out in parallel. For each experiment the 5 mg of the solid was added to 5 mL of the buffer in a vial. […] The standards and samples were measured by UV spectrophotometry at the maximum wavelength of the individual compounds.

The subject of series [6] is wild-type HIV-1. The note with it: MT-4 cells; Janssen 2005 / Ludovici 2001; read-out: previously reported EC50, wild-type; cited from earlier work.
Series [7] has as its system HIV-1 Y181C variant. As to conditions: MT-4 cells; Janssen 2005 / Ludovici 2001; read-out: previously reported EC50, Y181C; cited from earlier work.
In series [8] the test system is HIV-1 K103N/Y181C variant. The note with it: MT-4 cells; Janssen 2005 / Ludovici 2001; read-out: previously reported EC50, K103N/Y181C; cited from earlier work.
The test system of series [9] is HIV-1 K103N/Y181C variant. The experiment in a line: microbe, parasite or virus in culture. Format: cell-based.
The test system of series [10] is HIV-1 Y181C variant. Kind of series: microbe, parasite or virus in culture. Format: cell-based.

≈ marks a conversion by molar mass, not a printed value. Like-named read-outs stand apart in the source and are kept apart here.

As usually defined, the CC50 is the concentration that lowers cell viability or growth by half. As for `Cc1ccnc2c1NC(=O)c1cccnc1N2C1CC1` [nevirapine], the CC50 in series [1] was greater than 100000 nM; in series [2], greater than 100 µM.
`Cc1cc(/C=C/C#N)cc(C)c1Nc1ccnc(Nc2ccc(C#N)cc2)n1` [rilpivirine, reference compound]: the “S” value in series [3] came out at 50 nM.
The aqueous solubility is the concentration that dissolves in the medium under given conditions. In the case of `CN1C(C(=O)Nc2ccccn2)=C(O)c2ccccc2S1(=O)=O` [Piroxicam, reference compound], in series [4], the aqueous solubility is 6.4 µg/mL (≈ 19.3 µM). In addition, the “Aqueous Solubility (S)” value in series [5] came to 7.2 µg/mL.
Consider `Cc1cc(C)c(Nc2ccnc(Nc3ccc(C#N)cc3)n2)c(C)c1` [Compound 10a, dapivirine, reference compound], for which the CC50 in series [1] came out at 2000 nM. Also, the EC50 in [6] was 1.2 nM; in series [7], 7 nM; in series [8] it was 54 nM; in series [9] (Human immunodeficiency virus 1, MT2, read-out: EC50, K103N/Y181C variant), 39 nM; in [9] (Human immunodeficiency virus 1, MT2, read-out: EC50 K103N/Y181C), 39 nM; in [10] (Human immunodeficiency virus 1, MT2, read-out: EC50, Y181C variant), 39 nM. Besides, in series [10] (Human immunodeficiency virus 1, MT2, read-out: EC50 Y181C), the EC50 came to 39 nM.

The record behind these values is patent US9914709B2, “Compositions and methods of treating HIV-1 infections using same” (YALE UNIVERSITY, priority 2013, dated 2018).
